Reference: the NIST ThermoML archive (doi:10.1016/j.jct.2019.02.019)

Assay: xn = mol fraction of the nth substance listed
Details: 101 kPa, Liquid; for viscosity: Capillary tube (Ostwald / Ubbelohde) method; for mass density: Vibrating tube method

NCCO [2-aminoethan-1-ol] + CCO
Details | mass density, 293.15 K [kg/m3] | mass density, 303.15 K [kg/m3] | mass density, 313.15 K [kg/m3] | mass density, 323.15 K [kg/m3] | viscosity, 293.15 K [mPa·s] | viscosity, 303.15 K [mPa·s] | viscosity, 313.15 K [mPa·s] | viscosity, 323.15 K [mPa·s]
x1 = 0.1002 | 816.84 | 808.87 | 799.33 | 791.69 | 1.56 | 1.27 | 1.05 | 0.87
x1 = 0.1999 | 843.68 | 834.94 | 825.34 | 817.35 | 2.12 | 1.68 | 1.36 | 1.11
x1 = 0.3002 | 868.92 | 860.42 | 850.66 | 842.49 | 2.89 | 2.23 | 1.77 | 1.42
x1 = 0.4004 | 893.15 | 884.54 | 874.69 | 866.58 | 3.96 | 2.98 | 2.29 | 1.8
x1 = 0.5 | 916.18 | 907.59 | 897.82 | 889.61 | 5.44 | 3.96 | 2.95 | 2.28
x1 = 0.5998 | 938.02 | 929.38 | 919.84 | 911.88 | 7.45 | 5.23 | 3.8 | 2.87
x1 = 0.7 | 959.13 | 950.81 | 941.56 | 933.03 | 10.19 | 6.92 | 4.87 | 3.6
x1 = 0.7996 | 978.96 | 970.81 | 961.95 | 953.82 | 13.74 | 9.05 | 6.17 | 4.48
x1 = 0.8994 | 998.41 | 989.98 | 981.44 | 973.33 | 18.22 | 11.74 | 7.74 | 5.48
x1 = 1 | 1016.3 | 1008.02 | 999.98 | 991.97 | 23.4 | 14.71 | 9.77 | 6.83
